The values that follow come from patent US20230107216A1, “PANTETHEINE DERIVATIVES AND USES THEREOF” (Comet Therapeutics, Inc., priority 2018, published 2023).

Test [1] deals with Subnormal activation of pyruvate dehydrogenase complex (PDH) primary fibroblasts GM01503 (GM1503A). The experiment in a line: Total NAD+ + NADH and NAD+ (NAD/NADH-Glo), PDH fibroblasts GM01503. The settings on record: Homo sapiens, Fibroblast, 24h, read-out: Increase in Total NAD+ + NADH. The format is cell-based. The method, then:
(§1) Primary adherent fibroblasts were cultured in minimum essential medium (MEM) (Gibco, 25030081) supplemented with 2 mM L-Glutamine (Gibco, 25030081), 15% fetal bovine serum (FBS) (Gibco, 26400044) and 1% penicillin/streptomycin (Gibco, 5140122) at 37° C. and 5% CO2. Cells were collected for either passaging or experiment at ˜70-80% confluence. Cells were obtained by trypsinization and seeded in cell culture microplates either white plate (Thermo Fisher Scientific, 152028) for luminescent measurement or black plate (Thermo Fisher Scientific, 165305) for fluorescent based read out for different assays listed below. Cells were obtained by trypsinization and […] were seeded and allowed to adhere for 16-18 hours to have confluency around 70-80% in the cell well with culture media. After 24 hours prior to measurements (37° C., 5% CO2) media was changed to Dulbecco's Modified Eagle Medium (DMEM, Agilent Seahorse cat #103575-100) with the appropriate supplements as stated below.
(§2) Primary fibroblasts assayed were Propionic Acidemia (PA) (GM03590 Coriell Institute for Medical Research, Tsi 6337 Trans-Hit Bio), Methylmalonic Acidemia (MMA) (Tsi 5224 Trans-Hit Bio), Subnormal activation of pyruvate dehydrogenase complex (PDH) (GM01503 Coriell Institute for Medical Research), Very long-chain acyl-CoA dehydrogenase (VLCAD) (GM17475), Leigh Syndrome (LS) (GM03672, GM13411 Coriell Institute for Medical Research), Pyruvate Carboxylase Deficiency (PC) (GM00444 Coriell Institute for Medical Research). 10 μM of Compounds were added for 2 hours in PA, MMA lines and for 24h for the other fibroblast lines.
(§3) Assay was performed according to manufacturer instructions (NAD/NADH-Glo Assay Promega, G9072). The NAD/NADH-Glo Assay is a bioluminescent assay for detecting total oxidized and reduced nicotinamide adenine dinucleotides (NAD+ and NADH, respectively) from which ratio of NAD/NADH can be calculated. Briefly, for every assay a 12-point standard curve was prepared ranging from 400 nM to 0.625 nM. Media was removed and replaced with 50 μl of PBS for both assays.
(§4) For individual NAD+ and NADH measurement, 50 μl of 1% DTAB (Sigma Cat #D5047) (cell lysis reagent) in 0.2N NaOH was added to the plate and a total 100 μl of lysate was split into two plates with 50 μl each. 25 μl of 0.4N HCl were added to the NAD+ plate and both NAD+ and NADH plate were heated at 60° C. for 15 minutes. The acid and heat treatment destroyed NADH allowing individual NAD+ measurement while heating in basic conditions destroys NAD+ allowed individual NADH measurements. The plates were allowed to come to room temperature for 10 minutes and Trizma base (Sigma, T1699) was added to the NAD+ plate to neutralize the acid and HCl Trizma hydrochloride (Sigma, T2694) was added to the NADH plate. The NADNADH glo reagent was prepared by adding: 625 μl of NAD cycling substrate, 125 μl of reductase, 125 μl of reductase substrate, 125 μl NAD cycling enzyme to total of the 25 ml of NAD GLO reagent. 1:1 ratio of total volume of reagent was added to the individual NAD+, NADH measurement (total 100 μl) and 50 μl for total NAD/NAH measurement. Luminescence was read between 30-60 minutes within the linear range.
(§5) A total dead cell count was performed as described in Example 817 and only alive cells were used for analysis.

For test [2], the system named is Very long-chain acyl-CoA dehydrogenase (VLCAD) primary fibroblasts GM17475. Nature of the test: Total NAD+ + NADH and NAD+ (NAD/NADH-Glo), VLCAD fibroblasts GM17475. The format is cell-based. As to conditions: Homo sapiens, Fibroblast, VLCAD GM17475 P10, assay condition A, 24h, read-out: Increase in Total NAD+ + NADH. As for the experimental part:
as §1, §2, §3, §4, §5

Test [3] concerns Peripheral blood mononuclear cells co-cultured with venular endothelial cells (HUVEC) (LPS system). Nature of the test: BioMAP LPS system. The format is cell-based, human. As to conditions: Homo sapiens, HUVEC, 24 h, 10 uM, procedure of Example 827.
The subject of test [4] is Bronchial epithelial cells (BE3C system). Nature of the test: BioMAP BE3C system (IL-1β, TNFα, IFNγ). The test is classed as cell-based, human. As to conditions: procedure of Example 831.
Setting [5] is: PDH GM1503A P10, assay condition A.
The mark [6] stands for this setting: PDH GM1503A P10, assay condition B.

Where two headings read alike, the source gives them in different places. Some results are limits rather than exact numbers.

Turning to `CC(=O)OCC(C)(C)[C@@H](O)C(=O)NCCC(=O)NCCSC(=O)CC(=O)CCC(=O)O` [Compound 140, 6-[(2-[3-[(2R)-4-(acetyloxy)-2-hydroxy-3,3-dimethylbutanamido]propanamido]ethyl)sulfanyl]-4,6-dioxohexanoic acid], the activation at 10 µM in test [1] (setting [5]) and in test [2] was at least 10% throughout.
For the molecule `CCC(=O)CC(=O)SCCNC(=O)CCNC(=O)[C@H](O)C(C)(C)CO` [Compound 382, (2R)-2,4-dihydroxy-3,3-dimethyl-N-[2-([2-[(3-oxopentanoyl)sulfanyl]ethyl]carbamoyl)ethyl]butanamide], the activation at 10 µM in test [1] (setting [5]) and in test [2] was at least 10% in each case.
On to `CC(=O)SCCNC(=O)CCNC(=O)[C@H](O)C(C)(C)COC(=O)[C@H](C)N` [Compound 502, (3R)-3-[(2-[[2-(acetylsulfanyl)ethyl]carbamoyl]ethyl)carbamoyl]-3-hydroxy-2,2-dimethylpropyl (2S)-2-aminopropanoate], for which the activation at 10 µM in test [1] (setting [6]) was at least 10%. The inhibition at 10 µM in test [3] (read-out: % decrease in IL-8), in test [3] (read-out: % decrease in TissueFactor) and in test [3] (read-out: % decrease in sPGE2) was at least 10% each time. Also, the “% decrease in IL-1α” value in test [4] (1 uM) is on record as at least 10%.
Turning to `CC(=O)SCCNC(=O)CCNC(=O)[C@H](O)C(C)(C)COC(=O)CN` [Compound 560, (3R)-3-[(2-[[2-(acetylsulfanyl)ethyl]carbamoyl]ethyl)carbamoyl]-3-hydroxy-2,2-dimethylpropyl 2-aminoacetate], in test [1] (setting [5]), the activation at 10 µM is at least 10%.
`CC(=O)OCC(C)(C)[C@@H](OC(C)=O)C(=O)NCCC(=O)NCCSC(C)=O` [Compound 1264, (1R)-3-(acetyloxy)-1-[(2-[[2-(acetylsulfanyl)ethyl]carbamoyl]ethyl)carbamoyl]-2,2-dimethylpropyl acetate]: the activation at 10 µM in test [1] (setting [5]) and in test [2] was at least 10% throughout. The “% decrease in tPA” value in test [4] (10 uM) is at least 10%. In addition, in test [4] (Homo sapiens, Epithelial cell, 24 h, 10 uM, read-out: % decrease in MMP-1), the inhibition at 10 µM was at least 10%.
As to `CC(O)C(C(=O)SCCNC(=O)CCNC(=O)[C@H](O)C(C)(C)CO)C(C)O` (stereo partly drawn) [Compound 1285, (2R)-2,4-dihydroxy-N-[2-[(2-[[3-hydroxy-2-(1-hydroxyethyl)butanoyl]sulfanyl]ethyl)carbamoyl]ethyl]-3,3-dimethylbutanamide], the activation at 10 µM in test [1] (setting [5]) and in test [2] was at least 10% throughout.
As to `CC(C)(CO)[C@@H](O)C(=O)NCCC(=O)NCCSC(=O)CCCO` [Compound 1304, (2R)-2,4-dihydroxy-N-[2-([2-[(4-hydroxybutanoyl)sulfanyl]ethyl]carbamoyl)ethyl]-3,3-dimethylbutanamide], the activation at 10 µM in test [1] (setting [6]) is at least 10%.
As to `C[C@H](O)CC(=O)CC(=O)SCCNC(=O)CCNC(=O)[C@H](O)C(C)(C)CO` [Compound 1306, (2R)-2,4-dihydroxy-N-[2-[(2-[[(5S)-5-hydroxy-3-oxohexanoyl]sulfanyl]ethyl)carbamoyl]ethyl]-3,3-dimethylbutanamide], in test [1] (setting [6]), the activation at 10 µM is at least 10%.
